# Results as given in patent US12642786B2, “Methods, compositions and kits for treating multiple sclerosis and other disorders” (The Johns Hopkins University, priority 2018, dated 2026).
# “Also recorded” adds a separate entry of the source.
# Legend:
# [1] = system: CD4+, Th1 and Th17 lymphocytes in EAE mice; test: Flow cytometry of spinal cord in EAE mice treated from clinical score 1.0; assay type: in vivo, C57BL/6J mice; settings: day 18 post-immunization (late peak), treatment started at score 1.0
# Method: Mice were killed with pentobarbital and perfused via cardiac puncture with ice-cold HBSS without cations. Brain, spinal cord (collected using hydrostatic pressure), spleen, and lymph node tissue were isolated after perfusion and were mechanically dissociated by passing through 100-μm cell strainers. For CNS tissue, after dissociation, infiltrating mononuclear cells were separated from myelin debris using a 37/70% percoll gradient. After dissociation, spleens were incubated in ACK lysis buffer to remove red blood cell contamination. Cells were counted using a MACSQuant flow cytometer (Miltenyi Biotec).
# (§1) For surface marker and intracellular cytokine staining of T cells, the cells were first restimulated with a cell stimulation mixture with protein transport inhibitors (eBioscience, catalog #00-4975-03) for 4 h in cRPMI at 37° C. They then underwent live/dead and surface marker staining as earlier. For intracellular cytokine staining, cells were permeabilized and fixed using either IC Fixation buffer for cytokine analysis (eBioscience, 00-8222-49) or FoxP3 fixation/permeabilization buffer for transcription factor analysis (eBioscience, 00-5521-00) after manufacturer recommended protocol and incubated with specific conjugated antibodies for the specified proteins in permeabilization buffer for 1 h.
# Cells were analyzed by flow cytometry using a MACSQuant flow cytometer (Miltenyi Biotec). Flow data analysis was performed in FlowJo (FlowJo) or FlowLogic (Inivai).
# [2] = system: murine peritoneal macrophages (mPMs); test: mPM cytokine secretion by ELISA; assay type: cell-based; settings: LPS 100 ng/mL, low-dose bryo-1
# Method: After overnight treatment of BMDCs or mPMs with LPS 100 ng/mL±bryo-1, culture supernatants were collected and cytokine production was assayed using ELISA kits for IL-12 p70 (catalog #88-7121-22), IL-6 (catalog #88-7064-22), and IL-10 (catalog #88-7105-22) purchased from eBioscience, according to manufacturer's instructions. Plates were read at 450 nm on a tabletop plate reader.
# Mice aged 8-12 wk were injected intraperitoneally with 2 mL each of 3% sterile thioglycolate (BD Biosciences, catalog #211716) medium. The mice were killed 3-5 d later, and cells were harvested by peritoneal lavage with ice-cold RPMI medium containing 2% FBS (FBS) and 1 unit/mL heparin. The cells were pelleted by centrifugation at 500×g for 8 min, washed in ice-cold RPMI containing 2% FBS alone, pelleted by centrifugation, and resuspended in ice-cold Spinner-modification minimum essential medium (SMEM; Sigma, M8167) supplemented with 10% FBS, 2 mM glutamine, and penicillin-streptomycin (SMEM-complete). Cells were then counted, equal numbers were plated into each well of appropriate cell culture dishes, and the cells were then incubated at 37° C. for 2-4 h to allow macrophage adhesion. Contaminating nonadherent cells were then removed by washing culture dishes five times with ice-cold sterile PBS. Fresh SMEM-complete was then added to the plates, which were incubated overnight at 37° C. […]
# [3] = system: murine peritoneal macrophages (mPMs); test: mPM arginase-1 expression by Western blot; assay type: cell-based; settings: IL-4 20 ng/mL
# Method: Cells were lysed by sonication in RIPA buffer supplemented with protease inhibitors, and protein concentration was measured by Bradford assay. Lysates were mixed with SDS sample buffer, boiled, and resolved by SDS/PAGE. Bands were transferred to PVDF Immobilon P membranes (Millipore) using a wet transfer, blocked in TBS-T containing 5% milk, and probed overnight at 4° C. with mouse monoclonal antibody against arginase-1 (Santa Cruz Biotechnology, catalog #sc-271430, 1:500). HRP-conjugated anti-mouse secondary antibody was from Jackson ImmunoResearch. Western blots were visualized using the SuperSignal West ECL system (Thermo Scientific), followed by film exposure. Blots were then stripped using Restore Western blot stripping buffer (Thermo Scientific, catalog #21059), blocked again as earlier, and probed overnight at 4° C. with HRP-conjugated anti-actin antibody before visualization as earlier. Quantitation was performed using ImageJ software.
# Mice aged 8-12 wk were injected intraperitoneally with 2 mL each of 3% sterile thioglycolate (BD Biosciences, catalog #211716) medium. […] Cells were then counted, equal numbers were plated into each well of appropriate cell culture dishes, and the cells were then incubated at 37° C. for 2-4 h to allow macrophage adhesion. […]
# naive CD4+ lymphocytes = test: Naive CD4+ T cells stimulated with α-CD3/CD28 antibodies, flow cytometry; assay type: cell-based, C57BL/6J mice
# Method: as §1
# Spleens were harvested from 6-10-wk-old female C57BL/6J mice, and single-cell suspensions were generated in FACS buffer by disrupting spleens with the plunger of a syringe over a 70-μm nylon cell strainer (BD Falcon), pelleting cells by centrifugation (500×g for 8 min), and resuspending in fresh FACS buffer. Naive CD4^+ cells were then isolated by negative selection using an isolation kit from STEMCELL Technologies (catalog #19765).
# Tissue culture plates were coated with α-CD3 antibody (BD Biosciences) by incubating them with 0.25-1.0 m/mL of antibody diluted in sterile PBS overnight at 4° C. or for 2-4 h at 37° C. The antibody solution was then removed, plates were washed once with sterile PBS, and naive CD4^+ T cells were seeded along with 0.25-1.0 m/mL α-CD28 antibody (BD Biosciences) in the presence or absence of the indicated doses of bryo-1. The cells were cultured for 3 d and then analyzed by flow cytometry.
# [4] = phase 2 clinical trials in humans; cited from earlier work
# [5] = 200 nM, cells stimulated with 0.25 μg/mL of α-CD3 and α-CD28 antibodies, 3 d
structure (smiles),measurement,setting,value
"CCC/C=C/C=C/C(=O)OC1/C(=C/C(=O)OC)CC2CC(C(C)O)OC(=O)CC(O)CC3CC(OC(C)=O)C(C)(C)C(O)(CC4C/C(=C/C(=O)OC)CC(/C=C/C(C)(C)C1(O)O2)O4)O3 (centres unmarked) [bryo-1, Bryostatin-1]",numbers of Th1 cells in spinal cord,[1],significantly diminished numbers
same,numbers of Th17 cells in spinal cord,[1],significantly diminished numbers
same,total CD4+ lymphocytes in spinal cord,[1],near-significant trend (P=0.06) toward decreased
same,LPS-induced secretion of IL-6,[2],inhibited
same,LPS-induced secretion of IL-12,[2],inhibited
same,IL-4-induced expression of arginase-1,[3],augments expression; also recorded: potentiated
same,expression of regulatory T-cell marker FoxP3,naive CD4+ lymphocytes; [5],increased expression
same,up-regulation of CD44,naive CD4+ lymphocytes; [5],inhibited up-regulation
same,up-regulation of IFNγ,naive CD4+ lymphocytes; [5],inhibited up-regulation
same,"effects on CD44, IFNγ and FoxP3 with stronger T-cell stimulation",naive CD4+ lymphocytes; of α-CD3/CD28,these effects were lost
same,safety profile,[4],favorable safety profile
